Laboratory results: PMC7290441 (Viruses, 2020)
Structures can show the parent of a compound that is named as a salt. Where two headings read alike, the source gives them in different places.

Legend:
[1] = test system: PR8 virus (viral proteins NP, HA, M1); assay type: cell-based, influenza A virus
[2] = test system: A/Puerto Rico/8/1934 (H1N1)
[3] = test system: A/Hong Kong/8/1968 (H3N2)
B/Lee/40 [4] = test system: B/Lee/40
[5] = test system: A/California/7/2009 (H1N1)
[6] = test system: A/Brisbane/59/2007 (H1N1)
A/Seoul/11/1988 (H3N2) [7] = test system: A/Seoul/11/1988 (H3N2)
A/Perth/16/2009 (H3N2) [8] = test system: A/Perth/16/2009 (H3N2)
[9] = test system: A/Brisbane/10/2007 (H3N2)
[10] = test system: A/Victoria/361/2011-like (H3N2)
B/Brisbane/60/2008 [11] = test system: B/Brisbane/60/2008
in vitro = settings: dog
[12] = test system: A/Puerto Rico/8/1934 (H1N1); test: microbe, parasite or virus in culture; settings: Influenza A virus, H1N1, MDCK, 72 h, read-out: EC50 against A/Puerto Rico/8/1934 (H1N1)
[13] = test system: A/Hong Kong/8/1968 (H3N2); test: microbe, parasite or virus in culture; settings: Influenza A virus, H3N2, MDCK, 72 h, read-out: EC50 against A/Hong Kong/8/1968 (H3N2)
B/Lee/40 [14] = test: microbe, parasite or virus in culture; settings: Influenza B virus, MDCK, 72 h, read-out: EC50 against B/Lee/40
[15] = test system: A/California/7/2009 (H1N1); test: microbe, parasite or virus in culture; settings: Influenza A virus, H1N1, MDCK, 72 h, read-out: EC50 against A/California/7/2009 (H1N1)
[16] = test system: A/Brisbane/59/2007 (H1N1); test: microbe, parasite or virus in culture; settings: Influenza A virus, H1N1, MDCK, 72 h, read-out: EC50 against A/Brisbane/59/2007 (H1N1)
A/Seoul/11/1988 (H3N2) [17] = test: microbe, parasite or virus in culture; settings: Influenza A virus, H3N2, MDCK, 72 h, read-out: EC50 against A/Seoul/11/1988 (H3N2)
A/Perth/16/2009 (H3N2) [18] = test: microbe, parasite or virus in culture; settings: Influenza A virus, H3N2, MDCK, 72 h, read-out: EC50 against A/Perth/16/2009 (H3N2)
[19] = test system: A/Brisbane/10/2007 (H3N2); test: microbe, parasite or virus in culture; settings: Influenza A virus, H3N2, MDCK, 72 h, read-out: EC50 against A/Brisbane/10/2007 (H3N2)
[20] = test system: A/Victoria/361/2011-like (H3N2); test: microbe, parasite or virus in culture; settings: Influenza A virus, H3N2, MDCK, 72 h, read-out: EC50 against A/Victoria/361/2011-like (H3N2)
B/Brisbane/60/2008 [21] = test: microbe, parasite or virus in culture; settings: Influenza B virus, MDCK, 72 h, read-out: EC50 against B/Brisbane/60/2008
[22] = Cytotoxicity to mock-infected MDCK cells (MTT); settings: dog

| Compound | S.I. (CC50/EC50), A/Puerto Rico/8/1934 (H1N1) ([2]; MDCK cells) | S.I. (CC50/EC50), A/Hong Kong/8/1968 (H3N2) [3] | S.I. (CC50/EC50), A/California/7/2009 (H1N1) ([5]; MDCK cells) | S.I. (CC50/EC50), A/Brisbane/59/2007 (H1N1) ([6]; MDCK cells) | EC50 [12] | EC50 [13] | EC50 (B/Lee/40 [14]) | EC50 [15] | EC50 [16] | EC50 (A/Seoul/11/1988 (H3N2) [17]) | EC50 (A/Perth/16/2009 (H3N2) [18]) | EC50 [19] | EC50 [20] | EC50 (B/Brisbane/60/2008 [21]) | CC50 at 3 days [22] | further results |
| --- | --- | --- | --- | --- | --- | --- | --- | --- | --- | --- | --- | --- | --- | --- | --- | --- |
| CCC(CC)O[C@@H]1C=C(C(=O)O)C[C@H](N)[C@H]1NC(C)=O [OSV-C, oseltamivir carboxylate] | (>25,714) | (>180,000) | (>58,065) | (>58,065) | 0.04 ± 0.01 µM | < 0.005 µM | 0.8 ± 0.03 µM | 0.02 µM | 0.02 µM | < 0.005 µM | 0.03 ± 0.02 µM | 0.53 ± 0.16 µM | < 0.005 µM | 53.1 ± 25.2 µM |  | viral proteins NP, HA and M1 (western blot) ([1]; […], nylidrin 100 μM, OSV-C 10 μM, RBV 100 μM): not detected; S.I. (CC50/EC50), B/Lee/40 (B/Lee/40 [4]): (>1125); S.I. (CC50/EC50), A/Seoul/11/1988 (H3N2) (A/Seoul/11/1988 (H3N2) [7]; MDCK cells): (>180,000); S.I. (CC50/EC50), A/Perth/16/2009 (H3N2) (A/Perth/16/2009 (H3N2) [8]; MDCK cells): (>30,000); S.I. (CC50/EC50), A/Brisbane/10/2007 (H3N2) [9]: (>1714); S.I. (CC50/EC50), A/Victoria/361/2011-like (H3N2) ([10]; MDCK cells): (>180,000); S.I. (CC50/EC50), B/Brisbane/60/2008 (B/Brisbane/60/2008 [11]; MDCK cells): (>17.0); CC50 at 3 days (in vitro): > 900 µM |
| NC(=O)c1ncn([C@@H]2O[C@H](CO)[C@@H](O)[C@H]2O)n1 [RBV, ribavirin] |  | (>57.5) |  |  | 18.4 ± 3.4 µM | 15.7 ± 2.7 µM | 13.8 ± 0.2 µM | 52.5 ± 1.5 µM | 24.1 ± 0.5 µM | 10.5 ± 4.2 µM | 33.8 ± 11.6 µM | 12.6 ± 6.4 µM | 33.4 ± 8.8 µM | 25.6 ± 0.3 µM | > 900 µM | viral proteins NP, HA and M1 (western blot) [1]: not detected; S.I. (CC50/EC50), A/Puerto Rico/8/1934 (H1N1) [2]: (>48.9); S.I. (CC50/EC50), B/Lee/40 (B/Lee/40 [4]): (>65.5); S.I. (CC50/EC50), A/California/7/2009 (H1N1) [5]: (>17.2); S.I. (CC50/EC50), A/Brisbane/59/2007 (H1N1) [6]: (>37.3); S.I. (CC50/EC50), A/Seoul/11/1988 (H3N2) (A/Seoul/11/1988 (H3N2) [7]): (>52.3); S.I. (CC50/EC50), A/Perth/16/2009 (H3N2) (A/Perth/16/2009 (H3N2) [8]): (>26.6); S.I. (CC50/EC50), A/Brisbane/10/2007 (H3N2) [9]: (>71.4); S.I. (CC50/EC50), A/Victoria/361/2011-like (H3N2) [10]: (>16.4); S.I. (CC50/EC50), B/Brisbane/60/2008 (B/Brisbane/60/2008 [11]): (>35.2) |
| CN(C)C(=O)Oc1cc(OC(=O)N(C)C)cc(C(O)CNC(C)(C)C)c1 (stereo not shown) [Bambuterol, bambuterol] |  |  |  |  | > 100 µM | > 100 µM | > 100 µM |  |  |  |  |  |  |  | > 900 µM |  |
| OC(CN1CCC(Cc2ccc(F)cc2)CC1)c1ccc(Cl)cc1 (stereo not shown) [Eliprodil, eliprodil] |  | (>15.5) |  | (>16.9) | > 100 µM | > 44 µM | > 100 µM | > 100 µM | 53.1 ± 0.3 µM | > 100 µM | > 100 µM | > 100 µM | > 100 µM | > 100 µM | > 900 µM | EC50 ([3]; read-out: EC50 against A/Hong Kong/8/1968 (H3N2)): 58.1 ± 6.4 µM |
| CC(Cc1ccc(O)cc1)NCC(O)c1cc(O)cc(O)c1 (stereo not shown) [Fenoterol, fenoterol] |  |  |  |  | > 100 µM | > 100 µM | > 100 µM |  |  |  |  |  |  |  |  | CC50 (in vitro): > 900 µM |
| CC(CCc1ccccc1)NCC(O)c1ccc(O)c(C(N)=O)c1 (stereo not shown) [Labetalol, labetalol] |  | (>11.3) |  |  | > 100 µM | 44 ± 9.7 µM | > 100 µM | > 100 µM | > 100 µM | > 100 µM | > 100 µM | > 100 µM | > 100 µM | > 100 µM | 498.1 ± 0.5 µM |  |
| CC(NCCc1ccc(O)cc1)C(O)c1ccc(O)cc1 (stereo not shown) [Ritodrine, ritodrine] |  |  |  |  | > 100 µM | > 100 µM | > 100 µM |  |  |  |  |  |  |  | > 900 µM |  |
| NC12CC3CC(CC(C3)C1)C2 [AMT, amantadine hydrochloride] |  | (>1200) |  | (>750) | > 100 µM | 0.8 ± 0.1 µM | > 100 µM | > 100 µM | 1.2 ± 0.4 µM | 0.3 ± 0.1 µM | > 100 µM | > 100 µM | > 100 µM | > 100 µM | > 900 µM |  |
| CC(C)(C)NCC(O)c1cc(Cl)c(N)c(Cl)c1 (stereo not shown) [Clenbuterol, clenbuterol] | (>96.3) |  | (>65.9) | (>69.8) | 9.4 ± 4.6 µM | > 100 µM | > 100 µM | 13.7 ± 3.6 µM | 12.9 ± 0.3 µM | > 100 µM | > 100 µM | > 100 µM | > 100 µM | > 100 µM |  | CC50 (in vitro): > 900 µM |
| CC(C(O)c1ccc(O)cc1)N1CCC(Cc2ccccc2)CC1 (stereo not shown) [Ifenprodil, ifenprodil] | (74.0) | (29.0) | (465.0) | (96.7) | 6.6 ± 0.4 µM | 16.9 ± 3 µM | > 100 µM | 1.1 ± 0.1 µM | 5.1 ± 0.3 µM | 37.9 ± 7.7 µM | > 100 µM | > 100 µM | > 100 µM | > 100 µM | 488.2 ± 0.5 µM |  |
